In patent US20250197376A1, “PYRAZINE AMIDE DERIVATIVES” (Novartis AG, priority 2022, published 2025) one finds EC50 data, which are given here for 35 compounds.

The assay has as its system 3D7 P. falciparum strain. Kind of assay: P. falciparum 3D7 parasite proliferation assay (SYBR Green). It counts as cell-based. To be noted: Plasmodium falciparum, Erythrocyte; 3D7 P. falciparum infected human erythrocytes, 72 hours, SYBR Green fluorescence; read-out: Pf3D7 Activity. The protocol: The following assay illustrates the invention without in any way limiting the scope of the invention. This parasite proliferation assay measures the increase in parasite DNA content using a DNA intercalating dye, SYBR Green®. 3D7 P. falciparum strain is grown in complete culturing media until parasitemia reaches 3% to 8% with O+ human erythrocytes. 20 μl of screening media is dispensed into 384 well assay plates. 50 nl of compounds of the invention (in DMSO), including antimalarial controls (mefloquine, pyrimethamine and artemisinin), are then transferred into the assay plates, as well as DMSO alone to serve as a negative control for inhibition. Then 30 μl of a suspension of a 3D7 P. falciparum infected erythrocytes in screening media is dispensed into the assay plates such that the final hematocrit is 2.5% with a final parasitemia of 0.3%. The plates are placed in a 37° C. incubator for 72 hours in a low oxygen environment containing 93% N2, 4% CO2, and 3% O2 gas mixture. 10 μl of lysis buffer (saponin, triton-X, EDTA) containing a 10× solution of SYBR Green […] in RPMI media is dispensed into the plates. The plates are lidded and kept at room temperature overnight for the lysis of the infected red blood cells. The fluorescence intensity is measured (excitation […], emission 530 nm) using the Envision™ system (Perkin Elmer). The percentage inhibition of 50%, EC50, is calculated for each compound.

Take `Cc1c(-c2cncc(C(=O)NCC(C)(C)N3CCOCC3)n2)[nH]c2ccccc12` [Example 96, 6-(3-Methyl-1H-indol-2-yl)-N-(2-methyl-2-morpholinopropyl)pyrazine-2-carboxamide]: the EC50 is above 100 nM.

Turning to `CC(C)(N)CNC(=O)c1cncc(-c2cc3cc(F)c(Cl)cc3[nH]2)n1` [Example 14, N-(2-amino-2-methylpropyl)-6-(6-chloro-5-fluoro-1H-indol-2-yl)pyrazine-2-carboxamide], the EC50 lay within 10 to 100 nM.

Regarding `CC(C)(N)CNC(=O)c1cncc(-c2cc3cc(Cl)ncc3[nH]2)n1` [Example 39, N-(2-amino-2-methylpropyl)-6-(5-chloro-1H-pyrrolo[2,3-c]pyridin-2-yl)pyrazine-2-carboxamide], the EC50 was above 100 nM.

For `CC(C)(N)CNC(=O)c1cncc(-c2cc3ccccc3[nH]2)n1` [Example 35, N-(2-amino-2-methylpropyl)-6-(1H-indol-2-yl)pyrazine-2-carboxamide], the EC50 was above 100 nM.

For the compound `Cc1c(-c2cncc(C(=O)NCC(C)(C)N)n2)[nH]c2c1C(=O)CC(C)(C)C2` [Example 56, N-(2-amino-2-methylpropyl)-6-(3,6,6-trimethyl-4-oxo-4,5,6,7-tetrahydro-1H-indol-2-yl)pyrazine-2-carboxamide], the EC50 is above 100 nM.

With `CC(C)(N)CNC(=O)c1cncc(-c2cc3ccc(F)cc3[nH]2)n1` [Example 21, N-(2-amino-2-methylpropyl)-6-(6-fluoro-1H-indol-2-yl)pyrazine-2-carboxamide], the EC50 fell in the range of 10 to 100 nM.

As to `Cc1c(-c2cncc(C(=O)NCC(C)(C)N)n2)[nH]c2ccc(S(F)(F)(F)(F)F)cc12` [Example 3, N-(2-amino-2-methylpropyl)-6-(3-methyl-5-(pentafluoro-λ^6-sulfaneyl)-1H-indol-2-yl)pyrazine-2-carboxamide], the EC50 was below 10 nM.

For the compound `CC(C)(N)CNC(=O)c1cncc(-c2cc3cc(Cl)ccc3[nH]2)n1` [Example 19, N-(2-amino-2-methylpropyl)-6-(5-chloro-1H-indol-2-yl)pyrazine-2-carboxamide], the EC50 fell in the range of 10 to 100 nM.

With `CC(C)(N)CNC(=O)c1cncc(-c2cc3cc(OCc4ccccc4)ccc3[nH]2)n1` [Example 22, N-(2-amino-2-methylpropyl)-6-(5-(benzyloxy)-1H-indol-2-yl)pyrazine-2-carboxamide], the EC50 is 10 to 100 nM.

`Cc1c(-c2cncc(C(=O)NCC3(N)CCOCC3)n2)[nH]c2cc(Cl)c(F)cc12` [Example 80, N-((4-aminotetrahydro-2H-pyran-4-yl)methyl)-6-(6-chloro-5-fluoro-3-methyl-1H-indol-2-yl)pyrazine-2-carboxamide]: the EC50 lay within 10 to 100 nM.

On to `CC(C)(N)CNC(=O)c1cncc(-c2cc3c(Cl)nccc3[nH]2)n1` [Example 41, N-(2-amino-2-methylpropyl)-6-(4-chloro-1H-pyrrolo[3,2-c]pyridin-2-yl)pyrazine-2-carboxamide], for which the EC50 was above 100 nM.

In the case of `Cc1c(-c2cncc(C(=O)NCC(C)(C)N)n2)[nH]c2ccccc12` [Example 83, N-(2-amino-2-methylpropyl)-6-(3-methyl-1H-indol-2-yl)pyrazine-2-carboxamide], the EC50 fell in the range of 10 to 100 nM.

For the compound `CC(C)(N)CNC(=O)c1cncc(-c2cc3cc(S(F)(F)(F)(F)F)ccc3[nH]2)n1` [Example 46, N-(2-amino-2-methylpropyl)-6-(5-(pentafluoro-λ^6-sulfaneyl)-1H-indol-2-yl)pyrazine-2-carboxamide], the EC50 fell in the range of 10 to 100 nM.

For the compound `CC(C)(N)CNC(=O)c1cncc(-c2cc3cc(F)ccc3[nH]2)n1` [Example 27, N-(2-amino-2-methylpropyl)-6-(5-fluoro-1H-indol-2-yl)pyrazine-2-carboxamide], the EC50 was 10 to 100 nM.

For the compound `Cc1c(-c2cncc(C(=O)NCC(C)(C)N)n2)[nH]c2cc(F)c(Cl)cc12` [Example 10, N-(2-amino-2-methylpropyl)-6-(5-chloro-6-fluoro-3-methyl-1H-indol-2-yl)pyrazine-2-carboxamide], the EC50 was below 10 nM.

`COc1ccc2cc(-c3cncc(C(=O)NCC(C)(C)N)n3)[nH]c2c1` [Example 31, N-(2-amino-2-methylpropyl)-6-(6-methoxy-1H-indol-2-yl)pyrazine-2-carboxamide]: the EC50 was above 100 nM.

For the compound `CC(C)(N)CNC(=O)c1cncc(-c2cc3cc(C#N)ccc3[nH]2)n1` [Example 104], the EC50 was above 100 nM.

In the case of `Cc1c(-c2cncc(C(=O)NCC(C)(C)N)n2)[nH]c2c(F)cc(Cl)cc12` [Example 6, N-(2-amino-2-methylpropyl)-6-(5-chloro-7-fluoro-3-methyl-1H-indol-2-yl)pyrazine-2-carboxamide], the EC50 was below 10 nM.

Take `CC(C)(N)CNC(=O)c1cncc(-c2cc3sc(C(N)=O)cc3[nH]2)n1` [Example 108, 5-(6-((2-amino-2-methylpropyl)carbamoyl)pyrazin-2-yl)-4H-thieno[3,2-b]pyrrole-2-carboxamide]: the EC50 is above 100 nM.

For `Cc1c(-c2cncc(C(=O)NCC(C)(C)O)n2)[nH]c2ccccc12` [Example 100, N-(2-hydroxy-2-methylpropyl)-6-(3-methyl-1H-indol-2-yl)pyrazine-2-carboxamide], the EC50 was above 100 nM.

Consider `Cc1c(-c2cncc(C(=O)NC3CCC(N)C3)n2)[nH]c2ccccc12` (centres unmarked) [Example 92, N-(3-aminocyclopentyl)-6-(3-methyl-1H-indol-2-yl)pyrazine-2-carboxamide], for which the EC50 was above 100 nM.

Regarding `COc1cc2[nH]c(-c3cncc(C(=O)NCC(C)(C)N)n3)cc2cc1F` [Example 36, N-(2-amino-2-methylpropyl)-6-(5-fluoro-6-methoxy-1H-indol-2-yl)pyrazine-2-carboxamide], the EC50 was above 100 nM.

Take `N[C@H]1CC[C@H](NC(=O)c2cncc(-c3cc4cc(OC(F)(F)F)ccc4[nH]3)n2)CC1` [Example 67, N-((1r,4r)-4-aminocyclohexyl)-6-(5-(trifluoromethoxy)-1H-indol-2-yl)pyrazine-2-carboxamide]: the EC50 is above 100 nM.

In the case of `Cc1c(-c2cncc(C(=O)NCC(C)(C)N)n2)[nH]c2cc(Cl)c(F)cc12` [Example 1, N-(2-amino-2-methylpropyl)-6-(6-chloro-5-fluoro-3-methyl-1H-indol-2-yl)pyrazine-2-carboxamide], the EC50 was below 10 nM.

On to `Cc1ccc2[nH]c(-c3cncc(C(=O)NCC(C)(C)N)n3)c(C)c2c1` [Example 15, N-(2-amino-2-methylpropyl)-6-(3,5-dimethyl-1H-indol-2-yl)pyrazine-2-carboxamide], for which the EC50 was in the range of 10 to 100 nM.

Take `CC(C)(N)CNC(=O)c1cncc(-c2cc3cc(Cl)cc(F)c3[nH]2)n1` [Example 13, N-(2-amino-2-methylpropyl)-6-(5-chloro-7-fluoro-1H-indol-2-yl)pyrazine-2-carboxamide]: the EC50 is 10 to 100 nM.

For `Cc1c(-c2cncc(C(=O)NCC(C)(C)N)n2)[nH]c2ccc(OC(F)F)cc12` [Example 70, N-(2-amino-2-methylpropyl)-6-(5-(difluoromethoxy)-3-methyl-1H-indol-2-yl)pyrazine-2-carboxamide], the EC50 lay in the range of 10 to 100 nM.

As for `Cc1c(-c2cncc(C(=O)N[C@H]3CCC[C@@H]3N)n2)[nH]c2cc(Cl)c(F)cc12` [Example 77, N-((1S,2S)-2-Aminocyclopentyl)-6-(6-chloro-5-fluoro-3-methyl-1H-indol-2-yl)pyrazine-2-carboxamide], the EC50 is below 10 nM.

Take `CC(C)(N)CNC(=O)c1cncc(-c2cc3cc(Cl)c(F)cc3[nH]2)n1` [Example 17, N-(2-amino-2-methylpropyl)-6-(5-chloro-6-fluoro-1H-indol-2-yl)pyrazine-2-carboxamide]: the EC50 is 10 to 100 nM.

With `Cc1c(-c2cncc(C(=O)NCC3(N)CC3)n2)[nH]c2cc(Cl)c(F)cc12` [Example 81, N-((1-aminocyclopropyl)methyl)-6-(6-chloro-5-fluoro-3-methyl-1H-indol-2-yl)pyrazine-2-carboxamide], the EC50 lay in the range of 10 to 100 nM.

`Cc1c(-c2cncc(C(=O)NCCCN)n2)[nH]c2ccc(OC(F)(F)F)cc12` [Example 63, N-(3-aminopropyl)-6-(3-methyl-5-(trifluoromethoxy)-1H-indol-2-yl)pyrazine-2-carboxamide]: the EC50 is 10 to 100 nM.

As for `Cc1ccc2[nH]c(-c3cncc(C(=O)NCC(C)(C)N)n3)cc2c1` [Example 26, N-(2-amino-2-methylpropyl)-6-(5-methyl-1H-indol-2-yl)pyrazine-2-carboxamide], the EC50 lay in the range of 10 to 100 nM.

As for `Cc1c(-c2cncc(C(=O)NCC3(N)CC(F)(F)C3)n2)[nH]c2cc(Cl)c(F)cc12` [Example 82, N-((1-amino-3,3-difluorocyclobutyl)methyl)-6-(6-chloro-5-fluoro-3-methyl-1H-indol-2-yl)pyrazine-2-carboxamide], the EC50 is 10 to 100 nM.

For `CC(C)(N)CNC(=O)c1cncc(-c2[nH]c3ccccc3c2Cl)n1` [Example 49, N-(2-amino-2-methylpropyl)-6-(3-chloro-1H-indol-2-yl)pyrazine-2-carboxamide], the EC50 lay in the range of 10 to 100 nM.

On to `CC(C)(N)CNC(=O)c1cncc(-c2[nH]c3ccc(OC(F)(F)F)cc3c2Cl)n1` [Example 106, N-(2-Amino-2-methylpropyl)-6-(3-chloro-5-(trifluoromethoxy)-1H-indol-2-yl)pyrazine-2-carboxamide], for which the EC50 was below 10 nM.
